Results taken from publication PMC6017736, “Indole-3-Carbonitriles as DYRK1A Inhibitors by Fragment-Based Drug Design” (Molecules : A Journal of Synthetic Chemistry and Natural …, 2018).

Experiments:
DYRK3 = molecular target: T1, DYRK3 (Homo sapiens, UniProt O43781); assay: Protein kinase assay ([γ-33P]-ATP, RS peptide substrate), DYRK3; assay type: biochemical; settings: 10 µM compound; read-out: Inhibition at 10 µM DYRK3 (class symbol)
T1 sequence (O43781 1-588): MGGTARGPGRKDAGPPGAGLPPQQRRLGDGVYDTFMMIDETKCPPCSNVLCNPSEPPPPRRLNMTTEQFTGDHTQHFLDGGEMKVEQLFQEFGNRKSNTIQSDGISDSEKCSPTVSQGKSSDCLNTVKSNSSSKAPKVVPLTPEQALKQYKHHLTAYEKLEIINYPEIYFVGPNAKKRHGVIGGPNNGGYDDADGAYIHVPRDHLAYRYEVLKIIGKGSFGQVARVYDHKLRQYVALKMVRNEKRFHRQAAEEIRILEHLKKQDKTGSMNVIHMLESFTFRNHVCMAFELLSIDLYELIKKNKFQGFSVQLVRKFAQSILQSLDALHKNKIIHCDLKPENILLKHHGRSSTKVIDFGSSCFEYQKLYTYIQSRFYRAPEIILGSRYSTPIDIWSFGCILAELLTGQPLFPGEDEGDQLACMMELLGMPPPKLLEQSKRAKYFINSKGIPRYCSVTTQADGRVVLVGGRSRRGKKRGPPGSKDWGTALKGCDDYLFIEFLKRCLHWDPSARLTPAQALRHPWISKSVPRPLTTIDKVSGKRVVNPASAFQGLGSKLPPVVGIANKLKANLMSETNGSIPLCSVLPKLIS
Protocol: (§1) DYRK1A, 1B, 2, 3 (human, recombinant, expressed in E. coli as GST fusion proteins) and CLK1, 2, 3, and 4 (mouse, recombinant, expressed in E. coli as GST fusion proteins) were assayed as described for GSK-3 in Buffer A (supplemented extemporaneously with 0.15 mg BSA/mL + 1 mM DTT) with 1 µg of RS peptide ([…]) as a substrate.

DYRK1B [1] = molecular target: DYRK1B (Homo sapiens, UniProt Q9Y463); assay: Protein kinase assay ([γ-33P]-ATP, RS peptide substrate), DYRK1B; assay type: biochemical; settings: 15 µM ATP; read-out: IC50 DYRK 1B
DYRK1B, sequence (Q9Y463 whole entry): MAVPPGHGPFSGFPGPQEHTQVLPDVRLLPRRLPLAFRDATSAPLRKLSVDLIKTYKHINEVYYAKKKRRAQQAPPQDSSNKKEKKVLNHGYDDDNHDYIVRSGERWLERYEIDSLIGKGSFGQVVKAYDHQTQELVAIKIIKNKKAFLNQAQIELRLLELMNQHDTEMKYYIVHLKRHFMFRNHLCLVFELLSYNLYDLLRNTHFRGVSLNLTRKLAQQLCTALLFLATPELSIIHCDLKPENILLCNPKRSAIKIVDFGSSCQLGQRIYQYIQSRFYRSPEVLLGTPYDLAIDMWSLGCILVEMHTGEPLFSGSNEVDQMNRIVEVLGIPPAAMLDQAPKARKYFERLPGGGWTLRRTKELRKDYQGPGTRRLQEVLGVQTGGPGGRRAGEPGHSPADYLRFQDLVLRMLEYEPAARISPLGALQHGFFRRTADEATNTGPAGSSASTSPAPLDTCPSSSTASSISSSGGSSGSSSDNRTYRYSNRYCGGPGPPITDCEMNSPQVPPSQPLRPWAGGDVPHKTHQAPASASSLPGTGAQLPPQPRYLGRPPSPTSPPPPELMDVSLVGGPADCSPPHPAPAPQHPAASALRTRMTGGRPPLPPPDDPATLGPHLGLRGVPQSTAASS
Protocol: as §1

DYRK2 = molecular target: T2, DYRK2 (Homo sapiens, UniProt Q92630); assay: Protein kinase assay ([γ-33P]-ATP, RS peptide substrate), DYRK2; assay type: biochemical; settings: 10 µM compound; read-out: Inhibition at 10 µM DYRK2 (class symbol)
T2 sequence (Q92630 1-601): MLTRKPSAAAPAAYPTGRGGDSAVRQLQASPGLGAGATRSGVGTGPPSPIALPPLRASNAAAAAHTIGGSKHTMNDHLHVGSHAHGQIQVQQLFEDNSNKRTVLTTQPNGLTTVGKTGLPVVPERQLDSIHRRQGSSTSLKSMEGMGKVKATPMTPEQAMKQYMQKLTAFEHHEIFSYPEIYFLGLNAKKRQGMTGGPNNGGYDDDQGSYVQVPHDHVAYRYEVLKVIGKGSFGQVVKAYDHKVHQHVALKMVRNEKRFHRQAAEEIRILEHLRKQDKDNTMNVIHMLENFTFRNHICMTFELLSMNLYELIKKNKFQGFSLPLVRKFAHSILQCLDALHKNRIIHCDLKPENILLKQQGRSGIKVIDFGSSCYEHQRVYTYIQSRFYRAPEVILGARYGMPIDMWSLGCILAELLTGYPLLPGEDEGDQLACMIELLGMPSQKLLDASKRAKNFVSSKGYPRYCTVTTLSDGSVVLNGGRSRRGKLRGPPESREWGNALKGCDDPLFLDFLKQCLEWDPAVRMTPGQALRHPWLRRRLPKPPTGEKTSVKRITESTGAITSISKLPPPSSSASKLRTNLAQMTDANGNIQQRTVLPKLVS
Protocol: as §1

DYRK1A [2] = molecular target: T3, DYRK1A (Homo sapiens, UniProt Q13627); assay: Ligand-lipophilicity efficiency (pIC50 minus calculated logP)
Protocol: All new compounds were evaluated based on their physicochemical properties regarding Lipinski’s rule of five and the ligand-lipophilicity efficiency (LLE). Both concepts are used to assess the druglikeness of drug development candidates. […] LLE is calculated from pIC50 minus calculated logP [46].

CLK1 = CLK1 (Mus musculus, UniProt P22518); assay: Protein kinase assay ([γ-33P]-ATP, RS peptide substrate), CLK1; assay type: biochemical; settings: for IC50: 15 µM ATP
CLK1, sequence (P22518 whole entry): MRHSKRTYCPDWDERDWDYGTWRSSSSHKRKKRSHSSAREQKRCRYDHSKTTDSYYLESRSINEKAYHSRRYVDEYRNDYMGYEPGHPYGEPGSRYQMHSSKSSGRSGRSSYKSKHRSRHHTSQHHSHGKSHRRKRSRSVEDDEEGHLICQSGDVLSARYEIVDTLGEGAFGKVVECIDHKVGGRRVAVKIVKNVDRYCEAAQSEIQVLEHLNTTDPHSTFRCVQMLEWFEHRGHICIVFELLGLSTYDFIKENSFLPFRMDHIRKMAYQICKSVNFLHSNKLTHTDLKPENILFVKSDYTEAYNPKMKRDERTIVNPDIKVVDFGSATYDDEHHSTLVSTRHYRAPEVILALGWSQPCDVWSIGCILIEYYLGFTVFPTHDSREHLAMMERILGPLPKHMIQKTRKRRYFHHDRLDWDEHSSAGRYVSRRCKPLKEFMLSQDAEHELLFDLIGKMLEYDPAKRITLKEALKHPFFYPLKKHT
Protocol: as §1

CLK2 = CLK2 (Mus musculus, UniProt O35491); assay: Protein kinase assay ([γ-33P]-ATP, RS peptide substrate), CLK2; assay type: biochemical; settings: 15 µM ATP
CLK2, sequence (O35491 whole entry): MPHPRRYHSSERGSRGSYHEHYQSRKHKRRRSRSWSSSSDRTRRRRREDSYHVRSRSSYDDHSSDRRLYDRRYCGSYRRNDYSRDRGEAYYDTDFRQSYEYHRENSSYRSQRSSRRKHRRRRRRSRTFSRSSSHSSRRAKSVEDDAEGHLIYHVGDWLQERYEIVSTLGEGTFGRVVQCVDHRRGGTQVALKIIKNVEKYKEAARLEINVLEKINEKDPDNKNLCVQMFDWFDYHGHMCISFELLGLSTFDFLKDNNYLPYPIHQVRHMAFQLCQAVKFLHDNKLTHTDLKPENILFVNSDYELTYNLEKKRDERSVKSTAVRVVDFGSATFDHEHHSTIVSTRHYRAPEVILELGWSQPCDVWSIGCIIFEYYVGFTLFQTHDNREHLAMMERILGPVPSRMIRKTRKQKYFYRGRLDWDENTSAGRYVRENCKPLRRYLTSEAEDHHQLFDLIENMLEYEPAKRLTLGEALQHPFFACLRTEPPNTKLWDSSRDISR
Protocol: as §1

DYRK1A [3] = molecular target: T3, DYRK1A; assay: Protein kinase assay ([γ-33P]-ATP, RS peptide substrate), DYRK1A; assay type: biochemical; settings: for IC50: 15 µM ATP, read-out: IC50 DYRK 1A
[4] = Kinetic solubility, laser nephelometry; assay type: physicochemical; settings: phosphate buffer pH 7.4, nephelometry
Protocol: The kinetic solubility was determined using laser nephelometry. A stock solution of the test compounds in DMSO was prepared and further diluted with DMSO to achieve a dilution series of 8–12 solutions with different concentrations. The DMSO solutions (2 µL) were placed in a row on a 96-well plate and diluted with aqueous phosphate buffer pH 7.4 (198 µL). The well plate was scanned by a nephelometer (Nephelostar Plus, BMG Labtech, Ortenberg, Germany). Unsolved particles scatter the laser light which is detected by the nephelometer. The intensity of the scattered light is proportional to the particle concentration in the suspension. The intensity of the scattered light was plotted versus the concentration to obtain a kick off curve. The concentration at which the compounds began to precipitate was directly read out from the kick off curve.

[5] = Thermodynamic solubility, shake-flask method with HPLC quantification; assay type: physicochemical; settings: phosphate buffer pH 7.4, 25 °C
Protocol: For solubility assays an aqueous phosphate buffer pH 7.4 was used. The buffer was prepared by dissolving Na2HPO4 × 2 H2O (298 mg), KH2PO4 (19 mg) and NaCl (800 mg) in water (100 mL). The pH was adjusted to 7.4 by addition of hydrochloric acid. The thermodynamic solubility was determined using a shake-flask method with quantification by a HPLC method. The test compounds (500 µg) were incubated with aqueous phosphate buffer pH 7.4 (400 µL) in sealed Whatman MiniUniPrep vials (GE Healthcare, Freiburg, Germany). The mixtures were shaken at 25 °C and 400 rpm for 24–96 h (IKA KS 3000 ic control, IKA-Werke, Staufen, Germany). After 24 h, 48 h and 72 h, the mixtures were visually inspected for remaining solids and the solids were filtered off. The concentrations in the resulting saturated solutions were quantified by isocratic HPLC using calibration with external standard. If equilibrium was not reached after 72 h, solubility of a further sample was determined after 96 h. For calibration, a stock solution of 10 mM of the test compounds in DMSO was prepared and the stock solution was diluted with ACN to suitable concentrations. The AUC at the wavelength maxima was used for quantification.

GSK-3 = assay: Protein kinase assay ([γ-33P]-ATP, GS-1 substrate), GSK-3
CLK3 = CLK3 (Mus musculus, UniProt O35492); assay: Protein kinase assay ([γ-33P]-ATP, RS peptide substrate), CLK3; assay type: biochemical; settings: 10 µM compound; read-out: Inhibition at 10 µM CLK3 (class symbol)
CLK3, sequence (O35492 whole entry): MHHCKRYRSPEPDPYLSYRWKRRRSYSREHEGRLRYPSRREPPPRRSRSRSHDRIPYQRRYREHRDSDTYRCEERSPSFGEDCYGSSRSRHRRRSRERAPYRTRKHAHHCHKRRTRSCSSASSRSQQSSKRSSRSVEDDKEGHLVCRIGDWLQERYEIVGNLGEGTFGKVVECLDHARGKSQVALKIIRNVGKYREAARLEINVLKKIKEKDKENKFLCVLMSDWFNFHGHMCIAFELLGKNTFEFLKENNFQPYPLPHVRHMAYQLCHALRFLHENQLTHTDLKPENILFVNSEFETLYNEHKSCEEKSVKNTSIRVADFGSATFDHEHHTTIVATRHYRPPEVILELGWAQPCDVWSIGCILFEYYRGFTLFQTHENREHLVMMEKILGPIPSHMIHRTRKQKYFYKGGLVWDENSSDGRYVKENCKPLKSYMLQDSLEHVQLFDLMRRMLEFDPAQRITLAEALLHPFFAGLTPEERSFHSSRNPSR
Protocol: as §1

CLK4 = CLK4 (Mus musculus, UniProt O35493); assay: Protein kinase assay ([γ-33P]-ATP, RS peptide substrate), CLK4; assay type: biochemical; settings: 15 µM ATP
CLK4, sequence (O35493 whole entry): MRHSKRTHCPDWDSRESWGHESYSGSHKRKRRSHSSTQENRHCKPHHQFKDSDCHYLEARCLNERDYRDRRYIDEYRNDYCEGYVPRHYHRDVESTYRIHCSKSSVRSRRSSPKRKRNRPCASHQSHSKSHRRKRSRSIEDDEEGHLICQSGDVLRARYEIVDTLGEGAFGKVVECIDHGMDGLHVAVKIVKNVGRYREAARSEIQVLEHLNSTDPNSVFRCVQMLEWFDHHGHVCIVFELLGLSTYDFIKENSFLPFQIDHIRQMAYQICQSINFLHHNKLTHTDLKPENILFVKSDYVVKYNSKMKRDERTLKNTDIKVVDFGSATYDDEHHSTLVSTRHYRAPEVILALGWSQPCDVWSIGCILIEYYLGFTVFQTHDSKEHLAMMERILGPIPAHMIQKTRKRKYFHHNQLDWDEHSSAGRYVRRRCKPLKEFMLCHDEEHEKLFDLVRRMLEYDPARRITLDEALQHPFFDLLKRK
Protocol: as §1

[6] = test system: DYRK1A (phosphorylation of T434 in SF3B1) in HeLa cells; assay: Inhibition of endogenous DYRK1A activity in HeLa cells (phosphorylation of T434 in GFP-SF3B1-NT, Western blot); assay type: cell-based
[7] = Cytotoxicity, cell viability by tetrazolium dye assay (XTT assay); assay type: cell-based; settings: human, HeLa cells, read-out: Viability of treated HeLa cells relative to control cells
Protocol: To evaluate the applicability of the 2-substituted indole-3-carbonitrile compounds in cell culture experiments, we assessed toxicity of 6f, 6h, 6s and 13b on HeLa cells by viability assays (Table 4).
The inhibitors were added to the cultured cells from stock solutions in DMSO to the desired final concentration. For cytotoxicity assays, HeLa cells were grown in 96-well plates (20,000–30,000 cells per well) and incubated with the test compounds for 3 days before cell viability was evaluated with the help of a tetrazolium dye assay (XTT assay, AppliChem GmbH, Darmstadt, Germany).

DYRK1A [8] = settings: read-out: IC50 DYRK1A; cited from earlier work
[9] = test system: DYRK1A-mediated tau phosphorylation and Aβ production; design: method as in PMID 25556849; settings: cellular; cited from earlier work
DYRK1B [10] = test system: DYRK1B; design: method as in PMID 27766861, PMID 25268714, PMID 25264830; settings: cited from earlier work
[11] = pIC50 (DYRK1A) minus calculated logP

Q: For Cn1c(-c2ccccc2)c(C#N)c2cccc(I)c21 [Compound 13f, 7-Iodo-1-methyl-2-phenyl-1H-indole-3-carbonitrile], which inhibition at 10 µM (DYRK3) is on record?
A: Its inhibition at 10 µM is under 20%.

Q: And the IC50 (DYRK1B [1])?
A: Its IC50 is 2100 nM.

Q: And the inhibition at 10 µM (DYRK2)?
A: Its inhibition at 10 µM is under 20%.

Q: What about the LLE (DYRK1A [2]; Table S2) of the same molecule?
A: The LLE was 1.54.

Q: What about the LLE (DYRK1A [2]; [11]) of the same molecule?
A: Its LLE is 1.54.

Q: What about the IC50 (CLK1) of the same molecule?
A: The IC50 was 600 nM.

Q: And the IC50 (CLK2)?
A: The IC50 was over 10000 nM.

Q: And the IC50 (DYRK1A [3])?
A: Its IC50 is 650 nM.

Q: What about the “Sexp., kin., pH 7.4” value [4] of the same molecule?
A: Its value is 37.5 (36.6–38.4) µM.

Q: What about the “Sexp., therm., pH 7.4” value [5] of the same molecule?
A: The value was under 0.5 µM.

Q: And the “Inhibition at 10 µM GSK3 (class symbol)” value (GSK-3; 10 µM compound)?
A: The value was “- (-: less than 20% inhibition at 10 µM, IC50 was not determined)”.

Q: What about the inhibition at 10 µM (CLK3) of the same molecule?
A: Its inhibition at 10 µM is under 20%.

Q: And the IC50 (CLK4)?
A: The IC50 was 1000 nM.

Q: With N#Cc1c(C2CCCC2)[nH]c2c(I)cccc12 [Compound 6s, 2-Cyclopentyl-7-iodo-1H-indole-3-carbonitrile] as the molecule, how does the IC50 ([6]; Homo sapiens, HeLa cells expressing GFP-SF3B1-NT, 18 h, read-out: IC50 inhibition of endogenous DYRK1A activity in HeLa cells (pT434 SF3B1)) read?
A: The IC50 was 520 nM.

Q: And the inhibition at 10 µM (DYRK3)?
A: The inhibition at 10 µM was under 20%.

Q: And the IC50 (DYRK1B [1])?
A: The IC50 was 600 nM.

Q: And the inhibition at 10 µM (DYRK2)?
A: The inhibition at 10 µM was under 20%.

Q: And the LLE (DYRK1A [2]; Table S2)?
A: Its LLE is 2.78.

Q: And the LLE (DYRK1A [2]; [11])?
A: The LLE was 2.78.

Q: And the IC50 (CLK1)?
A: Its IC50 is 120 nM.

Q: And the viability at 3 days, 1 µM [7]?
A: Its viability at 3 days, 1 µM is 99%.

Q: And the viability at 3 days, 3 µM [7]?
A: Its viability at 3 days, 3 µM is 100%.

Q: What about the viability at 3 days, 10 µM [7] of the same molecule?
A: Its viability at 3 days, 10 µM is 82%.

Q: What about the IC50 (CLK2) of the same molecule?
A: Its IC50 is 1000 nM.

Q: And the IC50 (DYRK1A [3])?
A: Its IC50 is 70 nM.

Q: And the “Sexp., kin., pH 7.4” value [4]?
A: Its value is 16.2 (15.2–17.3) µM.

Q: And the “Sexp., therm., pH 7.4” value [5]?
A: Its value is under 0.5 µM.

Q: What about the IC50 (GSK-3; read-out: IC50 GSK3, 15 µM ATP) of the same molecule?
A: Its IC50 is over 10000 nM.

Q: What about the inhibition at 10 µM (CLK3) of the same molecule?
A: The inhibition at 10 µM was under 20%.

Q: And the IC50 (CLK4)?
A: The IC50 was 100 nM.

Q: Which IC50 (DYRK1A [8]) does the source give for COC(=N)c1nc2ccc3ncnc(Nc4ccc(OC)cc4F)c3c2s1 [EHT 5372] here?
A: Its IC50 is 0.22 nM.

Q: What about the IC50 [9] of the same molecule?
A: The IC50 was 1060 to 1170 nM.

Q: With N#Cc1cn(Cc2ccccc2)c2c(Br)cccc12 [Compound 13b, 1-Benzyl-7-bromo-1H-indole-3-carbonitrile] as the molecule, how does the “Effect on the phosphorylation of SF3B1 on T434” value ([6]; HeLa cells, negative control) read?
A: Its value is “did not affect”.

Q: What about the remaining activity at 10 µM (CLK1; 10 µM compound, compared to controls, read-out: Residual Activity at 10 µM CLK1) of the same molecule?
A: The remaining activity at 10 µM was 53%.

Q: And the viability at 3 days, 1 µM [7]?
A: The viability at 3 days, 1 µM was 94%.

Q: And the viability at 3 days, 3 µM [7]?
A: The viability at 3 days, 3 µM was 94%.

Q: And the viability at 3 days, 10 µM [7]?
A: Its viability at 3 days, 10 µM is 66%.

Q: What about the remaining activity at 10 µM (DYRK1A [3]; 10 µM compound, compared to controls, read-out: Residual Activity at 10 µM DYRK 1A) of the same molecule?
A: Its remaining activity at 10 µM is 81%.

Q: And the “Residual Activity at 10 µM GSK3” value (GSK-3; 10 µM compound, compared to controls)?
A: The value was 114%.
